In PMC8429736, “Pharmacological characterization of mutant huntingtin aggregate-directed PET imaging tracer candidates” (Scientific Reports, 2021):
Read-outs that look alike come from different tables or passages of the source.

Experiments:
[1] = test system: R6/2 brain homogenates; test: RBA with R6/2 brain homogenates; type: binding, mouse; conditions: data not shown
Procedure: (§1) For RBA in vitro binding assays, brain tissue was sliced (50 µm), weighed and homogenized in PBS (Gibco, 14190-94), 0.1% BSA with a glass pestle (10 strokes) at a concentration of 12–15 mg wet tissue per mL buffer. The crude homogenate concentration was then adjusted to 10 mg/mL (wet tissue) and stored as single-use aliquots at -80 °C.
(§2) For saturation binding experiments, aggregate lysate preparation and final concentration in the assay, assay buffer, incubation times and plate processing were identical to the competition format. Radioligand was titrated up to 100 nM. Raw cpm were converted into nM using a calibration line of total added radioligand without washing and filtering (spiked onto the filter plate and dried) (e.g., X) and normalized to the concentration of protein (e.g., Y) to finally obtain […] (e.g., X/Y). Specific binding (SB) was calculated as full binding minus full competition (in the presence of excess unlabeled ligand) and a hyperbolic mono-phasic fit was applied using GraphPad Prism to determine Kd and Bmax.

[2] = target: mHTT aggregates in HOM zQ175 HD mouse brain sections; test: In vitro autoradiography (ARG) saturation binding, HOM zQ175 brain sections; conditions: HOM zQ175 12 months, cortex
Procedure: (§3) Twenty µm-thick sections were prepared from brains of disease mouse models and WT mice or human post-mortem brain samples by using a cryostat, mounted on superfrost slides and stored at -80 °C for a maximum of 2 weeks. On the day of the experiment, slides were adapted to room temperature for 30 min and then equilibrated by immersion into assay buffer (50 mM Tris–HCl pH 7.4; 120 mM NaCl; 5 mM KCl; 2 mM CaCl2; 1 mM MgCl2) for 20 min at room temperature.
(§4) Radioligand solutions were prepared in assay buffer. Optimal radioligand concentrations were determined in advance based on signal-to-background ratio obtained in mouse or human brain tissue. The solutions were mixed in a Coplin jar (Sigma, S5516-6EA) by gently shaking at 175 rpm for 10 min at room temperature. Sections were incubated by immersion into assay buffer containing either only radioligand (total binding or TB) or radioligand plus 10 µM of unlabeled compound (non-specific binding or NSB) for 60 min at room temperature. Afterwards slides were washed three times for 10 min with ice-cold washing buffer (50 mM Tris–HCl (pH 7.4)) at 4 °C and dipped for three seconds in ice-cold distilled water to remove buffer salts. […]

[3] = target: zQ175 brain homogenates; test: Whole brain homogenate RBA saturation binding, HOM zQ175; set-up: species or system mouse; conditions: HOM zQ175 12 months whole brain homogenate
Procedure: as §1, §2

[4] = target: T1, Exon1-Q46 aggregates (Homo sapiens, UniProt P42858, INS38QQQQQQQQQQQQQQQQQQQQQQQQQ); test: RBA competition binding against tritiated 3, Exon1-Q46 aggregates
T1 construct: MBP-HTT(1-89)Q46-His(6x); MBP (N, cleaved yes); made in house; host or cells: E. coli BL21 (DE3)
Procedure: For the competition assay format, Q46 or Exon1-Q46 aggregates at 1 µM (sample volume 150 µL) were pre-incubated in a 96-well round bottom plate (Corning, #3365) for 20 min with test compounds at room temperature (assay buffer 50 mM Tris–HCl pH 8.0, 150 mM NaCl). […] Radioligand 3 at 0.3 nM was added and incubated for 1 h at 37 °C.
Samples were then transferred onto a 96-well GF/B filter plate (Perkin Elmer, #6005177) using a Filtermate Harvester, aspirated by vacuum and wells washed twice with 200 µL PBS. After drying the filter plates for 1 h at 55 °C the back of the plate was sealed with aluminum cover and 30 µL of scintillation fluid (Perkin Elmer, #6013641) per well was added. The tops of the plates were sealed, and the plates were incubated for 15 min in the dark and counted in a TopCount or MicroBeta2 reader (both Perkin Elmer).
Raw sample data collected as counts per minute (cpm) were normalized towards assay controls: 0% inhibition = radioligand + protein + vehicle, 100% inhibition = radioligand + protein + 1 µM unlabeled ligand. A 4-parameter […] fit was applied to generate IC50 values.

[5] = target: Q46 aggregates; test: RBA saturation binding, Q46 aggregates; conditions: tritiated compound; mean ± SD
Procedure: For N-terminal tag cleavage, proteins at 30 µM in 2 mL reaction tubes were incubated with 150 µg/mL thrombin (Sigma, T4648) in 50 mM Tris (pH 8.0), 150 mM NaCl, 2 mM CaCl2 for 16 h at 37 °C.
For radioligand binding assays (RBA) (see below) and radiometric filter trap assays (RAFTA) (see below), aggregates were separated by centrifugation (5 min 16,000×g) and resuspended with assay buffer (50 mM Tris pH 8.0, 150 mM NaCl) (see Supplementary Fig. S2B). […]
Samples were then transferred onto a 96-well GF/B filter plate (Perkin Elmer, #6005177) using a Filtermate Harvester, aspirated by vacuum and wells washed twice with 200 µL PBS. […] The tops of the plates were sealed, and the plates were incubated for 15 min in the dark and counted in a TopCount or MicroBeta2 reader (both Perkin Elmer).
For saturation binding experiments, aggregate lysate preparation and final concentration in the assay, assay buffer, incubation times and plate processing were identical to the competition format. […] Specific binding (SB) was calculated as full binding minus full competition (in the presence of excess unlabeled ligand) and a hyperbolic mono-phasic fit was applied using GraphPad Prism to determine Kd and Bmax.

[6] = test system: aggregated ataxin 1; test: ARG, Sca1 mouse models; type: binding
Procedure: as §3, §4

[7] = target: beta amyloid plaques (6E10 antibody) (Homo sapiens, UniProt P05067); test: HR ARG co-registration with 6E10 antibody, human AD brain sections; type: binding; conditions: 10 nM CHDI-180, 10 nM CHDI-626, 0.1 nM PiB, 1 nM T808
[8] = target: beta amyloid plaques in human AD brain sections (Homo sapiens, UniProt P05067); test: ARG, human post-mortem AD frontal cortex sections; type: binding; conditions: 1 nM radioligand
beta amyloid plaques in human AD brain sections, sequence (P05067 672-713 limits assumed): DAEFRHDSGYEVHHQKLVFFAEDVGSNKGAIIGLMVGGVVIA

T1 sequence (P42858 with tags, fused parts or gaps with the stated changes): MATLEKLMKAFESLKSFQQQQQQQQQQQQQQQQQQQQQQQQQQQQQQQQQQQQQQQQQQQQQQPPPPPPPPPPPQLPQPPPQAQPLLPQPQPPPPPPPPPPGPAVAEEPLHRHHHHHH
beta amyloid plaques (6E10 antibody), sequence (P05067 672-713 limits assumed): as the sequence (P05067 672-713 limits assumed) above

`COc1ccc(COc2ccc3oc(-c4ccc(=O)n(C)n4)nc3c2)nc1` [CHDI-180] was tested, and the binding signal [1] was “no appropriate binding signal”, the Kd [2] was 1.1 nM and the “ARG Bmax” value ([2]; per mg tissue) was 163.0 fmol/mg. The Kd [3] was 2.4 nM, the “RBA Bmax” value ([3]; per mg tissue) was 34.0 fmol/mg and the IC50 ([4]; 0.3 nM tritiated 3 as radioligand, 1 µM aggregates, mean ± SD, read-out: IC50 Exon1-Q46) was 1.3 ± 0.7 nM. For the same molecule, the “Hill Slope” value ([4]; against tritiated 3, representative single experiment (Fig. 2B)) was 0.89, the IC50 ([4]; against tritiated 3, representative single experiment (Fig. 2B), read-out: IC50) was 1.4 nM and the Kd [5] was 7.7 ± 3.3 nM. For the same molecule, the “binding to aggregated ataxin 1” value ([6]; 1 nM radioligand, PcP2-82Q and SCA154Q/2Q mice) was “bound to aggregated ataxin 1”, the “ARG signals compared to the R6/2 HD model” value ([6]; brain sections of 2 Sca mouse models) was “much lower” and the “co-registration with 6E10-positive beta amyloid plaques” value [7] was “low density binding”. For the same molecule, the “binding in AD post-mortem brain tissues” value [8] was 5.6 ± 0.7 fmol/mg and the “binding in AD post-mortem brain tissues” value ([8]; gray matter) was 5.6 ± 0.7 fmol/mg tissue.
